Experimental data published in US10212936B2, “Molecules having pesticidal utility, and intermediates, compositions, and processes, related thereto” (priority 2014, dated 2019).

Key:
Format in all cases: in vivo
[1] = test system: Cabbage Looper (Trichoplusia ni, TRIPNI); assay: Bioassay on Cabbage Looper (CL), 128-well diet tray assay; settings: 168 h, 50 μg/cm^2 on artificial diet, second instar larvae, five to seven days, 25° C., read-out: CL % Control (or Mortality) rating
Procedure: (§1) Example A: Bioassays on Beet Armyworm (Spodoptera exigua, LAPHEG) (“BAW”), Corn Earworm (Helicoverpa zea, HELIZE) (“CEW”), and Cabbage Looper (Trichoplusia ni, TRIPNI) (“CL”)
(§2) Certain molecules disclosed in this document were tested against BAW, CEW, and CL using procedures described in the following examples. In the reporting of the results, the “BAW, CEW, & CL Rating Table” was used (See Table Section).
Bioassays on CL were conducted using a 128-well diet tray assay. one to five second instar CL larvae were placed in each well (3 mL) of the diet tray that had been previously filled with 1 mL of artificial diet to which 50 μg/cm^2 of the test molecule (dissolved in 50 μL of 90:10 acetone-water mixture) had been applied (to each of eight wells) and then allowed to dry. Trays were covered with a clear self-adhesive cover and held at 25° C., 14:10 light-dark for five to seven days. Percent mortality was recorded for the larvae in each well; activity in the eight wells was then averaged. The results are indicated in the table entitled “Table ABC: Biological Results” (See Table Section).

[2] = test system: Corn Earworm (Helicoverpa zea, HELIZE); assay: Bioassay on Corn Earworm (CEW), 128-well diet tray assay; settings: 168 h, 50 μg/cm^2 on artificial diet, second instar larvae, five to seven days, 25° C., read-out: CEW % Control (or Mortality) rating
Procedure: as §1, §2
Bioassays on CEW were conducted using a 128-well diet tray assay. one to five second instar CEW larvae were placed in each well (3 mL) of the diet tray that had been previously filled with 1 mL of artificial diet to which 50 μg/cm^2 of the test molecule (dissolved in 50 μL of 90:10 acetone-water mixture) had been applied (to each of eight wells) and then allowed to dry. Trays were covered with a clear self-adhesive cover, and held at 25° C., 14:10 light-dark for five to seven days. Percent mortality was recorded for the larvae in each well; activity in the eight wells was then averaged. The results are indicated in the table entitled “Table ABC: Biological Results” (See Table Section).

[3] = test system: Yellow Fever Mosquito (Aedes aegypti, AEDSAE); assay: Bioassay on Yellow Fever Mosquito (YFM) larvae, 96-well plate; settings: about 1 day-old larvae, 4000 ppm DMSO master plate diluted, graded after 3 days
Procedure: Example C: Bioassays on Yellow Fever Mosquito (Aedes aegypti, AEDSAE) (“YFM”)
Certain molecules disclosed in this document were tested against YFM using procedures described in the following paragraph. In the reporting of the results, the “YFM Rating Table” was used (See Table Section).
Master plates containing 400 μg of a molecule dissolved in 100 μL of dimethyl sulfoxide (DMSO) (equivalent to a 4000 ppm solution) are used. A master plate of assembled molecules contains 15 μL per well. To this plate, 135 μL of a 90:10 water:acetone mixture is added to each well. A robot (Biomek® NXP Laboratory Automation Workstation) is programmed to dispense 15 μL aspirations from the master plate into an empty 96-well shallow plate (“daughter” plate). There are 6 reps (“daughter” plates) created per master. The created daughter plates are then immediately infested with YFM larvae.
The day before plates are to be treated, mosquito eggs are placed in Millipore water containing liver powder to begin hatching (4 g. into 400 mL). After the daughter plates are created using the robot, they are infested with 220 μL of the liver powder/larval mosquito mixture (about 1 day-old larvae). After plates are infested with mosquito larvae, a non-evaporative lid is used to cover the plate to reduce drying. Plates are held at room temperature for 3 days prior to grading. After 3 days, each well is observed and scored based on mortality. The results are indicated in the table entitled “Table ABC: Biological Results” (See Table Section).

[4] = test system: Beet Armyworm (Spodoptera exigua, LAPHEG); assay: Bioassay on Beet Armyworm (BAW), 128-well diet tray assay; settings: 168 h, 50 μg/cm^2 on artificial diet, second instar larvae, five to seven days, 25° C., read-out: BAW % Control (or Mortality) rating
Procedure: as §1, §2
Bioassays on BAW were conducted using a 128-well diet tray assay. one to five second instar BAW larvae were placed in each well (3 mL) of the diet tray that had been previously filled with 1 mL of artificial diet to which 50 μg/cm^2 of the test molecule (dissolved in 50 μL of 90:10 acetone-water mixture) had been applied (to each of eight wells) and then allowed to dry. Trays were covered with a clear self-adhesive cover and held at 25° C., 14:10 light-dark for five to seven days. Percent mortality was recorded for the larvae in each well; activity in the eight wells was then averaged. The results are indicated in the table entitled “Table ABC: Biological Results” (See Table Section).

Compound | mortality at 50 µg/cm2 [1] | mortality at 50 µg/cm2 [2] | YFM % Control (or Mortality) rating [3] | mortality at 50 µg/cm2 [4]
CC(C)c1ccccc1-n1ccnc1NC(=O)Nc1ccc(-c2ncn(-c3ccc(OC(F)(F)C(F)(F)F)cc3)n2)cc1 [F34, 1-(1-(2-isopropylphenyl)-1H-imidazol-2-yl)-3-(4-(1-(4-(perfluoroethoxy)phenyl)-1H-1,2,4-triazol-3-yl)phenyl)urea] | 50 to 100% | 50 to 100% | D (No activity noticed in this bioassay) | 50 to 100%
O=C(Nc1ccc(-c2ncn(-c3ccc(OC(F)(F)C(F)(F)F)cc3)n2)cc1)Nc1nccn1-c1cccc(Cl)c1 [F35, 1-(1-(3-Chlorophenyl)-1H-imidazol-2-yl)-3-(4-(1-(4-(perfluoroethoxy)phenyl)-1H-1,2,4-triazol-3-yl)phenyl)urea] | 50 to 100% | 50 to 100% | D (No activity noticed in this bioassay) | 50 to 100%
Cc1ccc(-c2nonc2NC(=O)Nc2ccc(-c3ncn(-c4ccc(OC(F)(F)F)cc4)n3)cc2)c(C)c1 [F36, 1-(4-(2,4-Dimethylphenyl)-1,2,5-oxadiazol-3-yl)-3-(4-(1-(4-(trifluoromethoxy)phenyl)-1H-1,2,4-triazol-3-yl)phenyl)urea] | 50 to 100% | 50 to 100% | A (80-100) | 50 to 100%
O=C(Nc1ccc(-c2ncn(-c3ccc(OC(F)(F)F)cc3)n2)cc1)Nc1nonc1-c1ccccc1 [F37, 1-(4-Phenyl-1,2,5-oxadiazol-3-yl)-3-(4-(1-(4-(trifluoromethoxy)phenyl)-1H-1,2,4-triazol-3-yl)phenyl)urea] | 50 to 100% | 50 to 100% | A (80-100) | 50 to 100%
COc1ccccc1-c1nonc1NC(=O)Nc1ccc(-c2ncn(-c3ccc(OC(F)(F)F)cc3)n2)cc1 [F38, 1-(4-(2-Methoxyphenyl)-1,2,5-oxadiazol-3-yl)-3-(4-(1-(4-(trifluoromethoxy)phenyl)-1H-1,2,4-triazol-3-yl)phenyl)urea] | 50 to 100% | 50 to 100% | A (80-100) | 50 to 100%
COc1ccc(-c2nonc2NC(=O)Nc2ccc(-c3ncn(-c4ccc(OC(F)(F)F)cc4)n3)cc2)cc1 [F39, 1-(4-(4-Methoxyphenyl)-1,2,5-oxadiazol-3-yl)-3-(4-(1-(4-(trifluoromethoxy)phenyl)-1H-1,2,4-triazol-3-yl)phenyl)urea] | 50 to 100% | 50 to 100% | D (No activity noticed in this bioassay) | 0 to 50%
Cc1cc(C)c(-c2nonc2NC(=O)Nc2ccc(-c3ncn(-c4ccc(OC(F)(F)F)cc4)n3)cc2)c(C)c1 [F40, 1-(4-Mesityl-1,2,5-oxadiazol-3-yl)-3-(4-(1-(4-(trifluoromethoxy)phenyl)-1H-1,2,4-triazol-3-yl)phenyl)urea] | 50 to 100% | 50 to 100% | B (More than 0-Less than 80) | 50 to 100%
COc1cccc(-c2nonc2NC(=O)Nc2ccc(-c3ncn(-c4ccc(OC(F)(F)F)cc4)n3)cc2)c1 [F41, 1-(4-(3-Methoxyphenyl)-1,2,5-oxadiazol-3-yl)-3-(4-(1-(4-(trifluoromethoxy)phenyl)-1H-1,2,4-triazol-3-yl)phenyl)urea] | 50 to 100% | 50 to 100% | B (More than 0-Less than 80) | 50 to 100%
O=C(Nc1ccc(-c2ncn(-c3ccc(OC(F)(F)F)cc3)n2)cc1)Nc1nonc1-c1c(Cl)cccc1Cl [F42, 1-(4-(2,6-Dichlorophenyl)-1,2,5-oxadiazol-3-yl)-3-(4-(1-(4-(trifluoromethoxy)phenyl)-1H-1,2,4-triazol-3-yl)phenyl)urea] | 50 to 100% | 50 to 100% | D (No activity noticed in this bioassay) | 50 to 100%
Cc1cc(Cl)ccc1-c1nonc1NC(=O)Nc1ccc(-c2ncn(-c3ccc(OC(F)(F)F)cc3)n2)cc1 [F43, 1-(4-(4-Chloro-2-methylphenyl)-1,2,5-oxadiazol-3-yl)-3-(4-(1-(4-(trifluoromethoxy)phenyl)-1H-1,2,4-triazol-3-yl)phenyl)urea] | 50 to 100% | 50 to 100% | A (80-100) | 50 to 100%
CCc1ccccc1-c1nonc1NC(=O)Nc1ccc(-c2ncn(-c3ccc(OC(F)(F)F)cc3)n2)cc1 [F44, 1-(4-(2-Ethylphenyl)-1,2,5-oxadiazol-3-yl)-3-(4-(1-(4-(trifluoromethoxy)phenyl)-1H-1,2,4-triazol-3-yl)phenyl)urea] | 50 to 100% | 50 to 100% | D (No activity noticed in this bioassay) | 50 to 100%
O=C(Nc1ccc(-c2ncn(-c3ccc(OC(F)(F)F)cc3)n2)cc1)Nc1nonc1-c1ccccc1OC(F)(F)F [F45, 1-(4-(2-(Trifluoromethoxy)phenyl)-1,2,5-oxadiazol-3-yl)-3-(4-(1-(4-(trifluoromethoxy)phenyl)-1H-1,2,4-triazol-3-yl)phenyl)urea] | 50 to 100% | 50 to 100% | A (80-100) | 50 to 100%
FC(F)(F)Oc1ccc(-n2cnc(-c3ccc(CCNC(=S)Nc4ccnn4-c4ccccc4)cc3)n2)cc1 [F65, 1-(1-phenyl-1H-pyrazol-5-yl)-3-(4-(1-(4-(trifluoromethoxy)phenyl)-1H-1,2,4-triazol-3-yl)phenethyl)thiourea] | 50 to 100% | 50 to 100% | A (80-100) | 50 to 100%
